Patent US11241013B2, “Benzimidazole compounds as agricultural chemicals” (REDAG CROP PROTECTION LTD, priority 2017, dated 2022)

Key:
Type in all cases: cell-based
[1] = tested on: Pythium ultimum; test: Amended agar assay; set-up: key to % control Pythium ultimum 2 ppm / % control Pythium ultimum 20 ppm: D: no control detected at this concentration; C: up to 50% control; B: from 50 to 99% control; A: a control of greater than 99%, i.e. no detectable colony growth; conditions: amended PDA agar, % reduction in colony growth vs control plate, 18° C.; for inhibition of growth at 2 ppm / inhibition of growth at 20 ppm: Globisporangium ultimum
Description: Testing was carried out on potato dextrose agar (PDA) amended with each compound at a test concentration of typically 20 ppm or 2 ppm. Amended agar was poured into three replicate 9 cm petri dishes. Each replicate dish was inoculated in the centre with a 5 mm agar plug taken from the leading edge of a culture aged between 2 and 7 days old; the age of the culture was dependant on the growth rate of the pathogen being tested. The test pathogens were Pythium ultimum and Phytophthora cinnamomi. Plates were incubated at 18° C. and the diameter of each colony measured before growth on the fastest growing plate reached the plate edge. This varied between 2 and 7 days depending on the growth rate of test pathogens. The % reduction in colony growth compared to the control plate was calculated for each pathogen. The results are provided in Table 1, in which D represents no control detected at this concentration; C represents up to 50% control; B from 50 to 99% control; and A represents a control of greater than 99%, i.e. no detectable colony growth.
Alternatively, or in addition, the same assay was conducted at descending test concentrations with 5-fold dilutions typically down to 0.032 ppm though sometimes as low as 0.00026 ppm, and an EC50 (the concentration at which 50% control would be achieved) was determined. The results are provided in Table 1 in which G represents no control detected at 20 ppm, F represents an EC50 of ≥20 ppm and E represents an EC50 of less than 20 ppm.

[2] = tested on: Phytophthora cactorum; test: 96 well plate test; set-up: key: G: no control detected at 20 ppm; F: an EC50 of ≥20 ppm; an EC50 of less than 20 ppm; conditions: 96 well plate assay, agar amended to 20, 2, 0.2 and 0.02 ppm, assessed after 2 to 3 days
Description: (§1) Compounds were screened in 96 well plates with 10 compounds per plate. Each compound was screened using agar amended to 20, 2, 0.2 and 0.02 ppm, with proline at 50 and 10 ppm and 0.2% DMSO used as controls. Each test concentration and standard was replicated twice on a plate. Compounds were screened against Phytophthora cactorum. The agar used in the test is a 1% potato dextrose agar. 1000 spores/mL agar were added to the appropriate agar. A ×10 stock solution in 2% DMSO was produced for each dose i.e. 200, 20, 2 and 0.2 ppm, and 10 μl of this added to the appropriate wells on the plate. An equivalent amount of 2% DMSO and proline stock at 500 and 100 ppm were added for the controls. To each well 90 μl of the appropriate agar spore suspension was added to give the required final well concentrations. Plates were incubated at room temperature (18° C.) and assessed after 2 to 3 days. The amount of pathogen growth in each well was compared to the DMSO controls and an EC50 concentration was calculated. The results are provided in Table 1 in which H represents no control detected at 20 ppm, G represents no control detected at 2 ppm (where the highest test concentration in the assay was 2 ppm), F represents an EC50 of ≥20 ppm, E represents an EC50 of less than 20 ppm.

[3] = tested on: Phytophthora cactorum; test: 96 well plate test; conditions: 96 well plate assay, agar amended to 20, 2, 0.2 and 0.02 ppm, assessed after 2 to 3 days, read-out: EC50 Phytophthora spp. (Phytophthora cactorum)
Description: as §1

| EC50 Phytophthora spp. (Phytophthora cactorum) [2] | EC50 [3] [µg/mL] | Compound | inhibition of growth at 2 ppm [1] [%] | inhibition of growth at 20 ppm ([1]; 20 ppm) [%] | % control Pythium ultimum 2 ppm [1] | % control Pythium ultimum 20 ppm ([1]; 20 ppm) |
| --- | --- | --- | --- | --- | --- | --- |
| H | – | COCc1cccc(COc2nc3c(Cl)cccc3n2-c2nnnn2C)n1 [Example 72] | < 50 | – | – | – |
| H | – | COCCCOc1ccnc(COc2nc3ccccc3n2-c2nnnn2C)c1C [Example 15] | < 50 | > 99 | – | – |
| H | – | Cn1nnnc1-n1c(OCc2ccc(N)cn2)nc2ccccc21 [Example 57] | – | – | D | – |
| H | – | Cn1nnnc1-n1c(OCc2ncccn2)nc2ccccc21 [Example 2] | – | – | – | D |
| H | – | Cn1nnnc1-n1c(COc2ccccn2)nc2ccccc21 [Example 34, 1-(1-Methyl-1H-tetrazol-5-yl)-2-((pyridin-2-yloxy)methyl)-1H-benzo[d]imidazole] | – | – | D | – |
| – | ≥ 20 | Clc1cncnc1-n1c(OCc2ccccn2)nc2ccccc21 [Example 8] | 50 to 99 | – | – | – |
| H | – | Cn1nnnc1-n1c(OCc2cccc(S(C)(=O)=O)n2)nc2ccccc21 [Example 58, 1-(1-Methyl-1H-tetrazol-5-yl)-2-((6-(methylsulfonyl)pyridin-2-yl)methoxy)-1H-benzo[d]imidazole] | – | – | D | – |
| – | < 20 | COCCCOc1ccnc(COc2nc3c(Cl)cccc3n2-c2nnnn2C)c1C [Example 62] | > 99 | – | – | – |
| – | < 20 | Cn1nnnc1-n1c(OCc2cccc(NCc3ccccc3)n2)nc2c(Cl)cccc21 [Example 89] | > 99 | – | – | – |
| – | ≥ 20 | Cn1nnnc1-n1c(OCc2ccc3ccccc3n2)nc2ccccc21 [Example 65] | 50 to 99 | – | – | – |
| – | < 20 | COc1c(C)cnc(COc2nc3ccccc3n2-c2ncncc2Cl)c1C [Example 24] | 50 to 99 | – | – | – |
| – | < 20 | CCCNc1cccc(COc2nc3c(Cl)cccc3n2-c2nnnn2C)n1 [Example 88] | > 99 | – | – | – |
| – | < 20 | Cn1nnnc1-n1c(OCc2cccc(NCCCc3ccccc3)n2)nc2ccccc21 [Example 38] | > 99 | – | – | – |
| – | < 20 | CC(C)Nc1cccc(COc2nc3c(Cl)cccc3n2-c2nnnn2C)n1 [Example 103] | > 99 | – | – | – |
| – | < 20 | CSc1ccnc(COc2nc3ccccc3n2-c2nnnn2C)c1 [Example 55] | > 99 | – | – | – |
| H | – | CN(C)c1cccc(COc2nc3ccccc3n2-c2nnnn2C)n1 [Example 49, N,N-Dimethyl-6-(((1-(1-methyl-1H-tetrazol-5-yl)-1H-benzo[d]imidazol-2-yl)oxy)methyl)pyridin-2-amine] | – | – | D | – |
| H | – | Cn1nnnc1-n1c(OCc2cnccn2)nc2ccccc21 [Example 5] | – | < 50 | D | – |
| – | ≥ 20 | Cc1cccnc1COc1nc2ccccc2n1-c1nnnn1C [Example 3] | 50 to 99 | > 99 | – | – |
| – | < 20 | Cn1nnnc1-n1c(OCc2cccc(NCC3CC3)n2)nc2c(Cl)cccc21 [Example 87] | > 99 | – | – | – |
| – | ≥ 20 | Cn1nnnc1-n1c(OCc2cc([N+](=O)[O-])ccn2)nc2c(Cl)cccc21 [Example 69] | 50 to 99 | – | – | – |
| – | < 20 | Cn1nnnc1-n1c(OCc2cccc(NCc3ccc(Cl)cc3)n2)nc2ccccc21 [Example 84] | > 99 | – | – | – |
| H | – | CSc1cccc(COc2nc3ccccc3n2-c2nnnn2C)n1 [Example 54] | – | – | D | – |
| – | < 20 | Cc1c(OCC(F)(F)F)ccnc1COc1nc2ccccc2n1-c1nnnn1C [Example 14] | > 99 | > 99 | – | – |

More lines, now with the values behind:

| Compound | EC50 Phytophthora spp. (Phytophthora cactorum) [2] | EC50 [3] [µg/mL] | inhibition of growth at 2 ppm [1] [%] | inhibition of growth at 20 ppm ([1]; 20 ppm) [%] | % control Pythium ultimum 2 ppm [1] | % control Pythium ultimum 20 ppm ([1]; 20 ppm) |
| --- | --- | --- | --- | --- | --- | --- |
| Cn1nnnc1-n1c(OCCc2ccccn2)nc2ccccc21 [Example 25] | H | – | < 50 | – | – | – |
| Cn1nnnc1-n1c(OCc2cccnc2)nc2ccccc21 [Example 18] | H | – | < 50 | – | – | – |
| Nc1cccc(COc2nc3ccccc3n2-c2ncncc2Cl)n1 [Example 9] | H | – | < 50 | – | – | – |
| CCCNc1cccc(COc2nc3ccccc3n2-c2nnnn2C)n1 [Example 42] | – | < 20 | > 99 | – | – | – |
| Cc1cccc(CNc2cccc(COc3nc4ccccc4n3-c3nnnn3C)n2)c1 [Example 95] | – | < 20 | > 99 | – | – | – |
| Cn1nnnc1-n1c(OCc2cccnn2)nc2ccccc21 [Example 21] | H | – | – | 50 to 99 | D | – |
| Cn1nnnc1-n1c(OCc2nccs2)nc2ccccc21 [Example 16] | – | ≥ 20 | < 50 | – | – | – |
| CC(C)CCOc1cccc(COc2nc3ccccc3n2-c2nnnn2C)n1 [Example 53] | H | – | – | – | D | – |
| COc1ccnc(COc2nc3ccccc3n2-c2nnnn2C)c1 [Example 4] | – | < 20 | > 99 | > 99 | – | – |
| CC(C)CCCNc1cccc(COc2nc3c(Cl)cccc3n2-c2nnnn2C)n1 [Example 63] | – | < 20 | > 99 | – | – | – |
| Cn1nnnc1-n1c(OCc2cccc(-c3ccccc3)n2)nc2ccccc21 [Example 32, 1-(1-Methyl-1H-tetrazol-5-yl)-2-((6-phenylpyridin-2-yl)methoxy)-1H-benzo[d]imidazole] | H | – | < 50 | – | – | – |
| Cn1nnnc1-n1c(OCc2nc3ccccc3n2C)nc2ccccc21 [Example 64] | – | < 20 | > 99 | – | – | – |
| Cc1ccc(COc2nc3ccccc3n2-c2nnnn2C)nc1 [Example 6] | – | ≥ 20 | > 99 | > 99 | – | – |
| Cn1nnnc1-n1c(OCc2nc3ccccc3s2)nc2c(Br)cccc21 [Example 104] | – | < 20 | > 99 | – | – | – |
| COc1c(C)cnc(COc2nc3ccccc3n2-c2nnnn2C)c1C [Example 12] | – | < 20 | > 99 | > 99 | – | – |
| COc1cccc(CNc2cccc(COc3nc4ccccc4n3-c3nnnn3C)n2)c1 [Example 94] | – | < 20 | > 99 | – | – | – |
| Cn1nnnc1-n1c(OCc2cccc(NCc3cccc(C(F)(F)F)c3)n2)nc2ccccc21 [Example 97] | – | < 20 | > 99 | – | – | – |
| CC(C)CCNc1cccc(COc2nc3c(Cl)cccc3n2-c2nnnn2C)n1 [Example 90] | – | < 20 | > 99 | – | – | – |
| COc1cccc(COc2nc3ccccc3n2-c2nnnn2C)n1 [Example 52] | H | – | – | – | D | – |
| Cn1nnnc1-n1c(OCc2ccncc2)nc2ccccc21 [Example 19] | H | – | < 50 | – | – | – |
| Cn1nnnc1-n1c(OCc2cccc(NCC3CCCC3)n2)nc2ccccc21 [Example 80] | – | < 20 | > 99 | – | – | – |
